Where two headings read alike, the source gives them in different places.
Columns and labels:
[1] = system: FKBP12-containing fusion proteins (3xFKBP-p65 / ZFHD1-3xFKBP transcription factors); assay: Dimerizer-regulated gene expression (SEAP or hGH reporter) in transfected cells; type: cell-based, human; settings: for activation of transcription with stably integrated constructs: cells in which transcription factor and reporter gene constructs are all stably integrated
Method: To screen clones it is convenient to transiently transfect cells in a 96-well format. Lipofectamine is used to introduce 50 ng total DNA/96-well under conditions recommended by the manufacturer (Gibco/BRL). If introducing both the transcription factor and target gene plasmids transiently, use 20 ng of each plasmid and 10 ng of carrier DNA (it may be necessary to optimize plasmid ratios and transfection conditions for each cell type). If only introducing one plasmid, bring to 50 ng with carrier DNA.
Following transfection, add medium +/−100 nM AP1510 dimerizer (or try a range of concentrations).
After overnight incubation (or longer), assay for target gene expression.
Secreted alkaline phosphatase activity can be easily measured from the supernatant of appropriately transfected cells using fluorescence-(see (10)), or chemiluminescence-(Tropix, Bedford, Mass.) based assays. Samples to be tested should first be incubated at 65° C. for 1 hour to inactivate endogenous alkaline phosphatase activity.
In gene regulation applications, expression becomes detectable at an AP1510 concentration of approximately 10 nM, and peaks at approximately 100 nM. When SEAP or hGH reporter systems are used, expression can be easily detected after an overnight incubation with dimerizer. In our experience, the efficacy is generally similar for other dimerization applications. A range of concentrations from 1 nM to 1 uM will typically provide a good dose-response profile in both cases.

[2] = Solubility in aqueous culture medium; type: physicochemical; settings: serial dilution in (aqueous) culture medium
Method: Working concentrations of AP1510 can be obtained by adding compound directly from ethanol stocks, or by diluting serially in culture medium just before use. In the latter case it is recommended that the highest concentration not exceed 5 uM, to ensure complete solubility in the (aqueous) medium. In either case, the final concentration of ethanol in the medium added to mammalian cells should be kept below 0.5% (a 200-fold dilution of a 100% ethanol solution) to prevent detrimental effects of the solvent on the cells.

cells = assay: Toxicity to cells; type: cell-based
[3] = Immunosuppressive activity of dimerizer
[4] = system: transmembrane receptors that are activated by oligomerization; assay: Dimerization of transmembrane receptors; type: cell-based
[5] = linker positioned in the calcineurin binding domain of FK506; cited from earlier work
FKBP12 = FKBP12 (Homo sapiens, UniProt P62942); settings: linker positioned in the calcineurin binding domain of FK506; cited from earlier work
[6] = gene regulation applications, SEAP or hGH reporter, overnight incubation with dimerizer

Sequence of FKBP12 (P62942 whole entry, the tested form may be a part): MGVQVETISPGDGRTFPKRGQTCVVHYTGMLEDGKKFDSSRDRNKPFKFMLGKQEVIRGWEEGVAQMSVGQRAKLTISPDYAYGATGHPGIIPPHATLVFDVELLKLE

Row | Compound | activation of transcription with stably integrated constructs [1] | activation of transcription compared with FK1012 ([1]; gene regulation applications) | AP1510 concentration at which expression becomes detectable [1, 6] | AP1510 concentration at which expression peaks [1, 6] | highest concentration ensuring complete solubility in medium [2] | toxicity to cells (cells) | immunosuppressive activity [3] | dimerization of transmembrane receptors [4] | immunosuppressive activity [5] | FKBP12 binding (FKBP12)
1 | CCC(C)(C)C(=O)C(=O)N1CCCC[C@H]1C(=O)O[C@H](CCc1ccc(OC)c(OC)c1)c1cccc(OCC(=O)NCCNC(=O)COc2cccc([C@@H](CCc3ccc(OC)c(OC)c3)OC(=O)[C@@H]3CCCCN3C(=O)C(=O)C(C)(C)CC)c2)c1 [AP1510] | activates transcription efficiently | at lower concentrations and to a higher level than FK1012 | approximately 10 nM | approximately 100 nM | ≤ 5 µM | non-toxic to cells | no immunosuppressive activity | successfully used to dimerize | – | –
2 | FK1012 | poor | – | – | – | – | – | – | – | abolishes immunosuppressive activity | unaffected
